The text below walks through data of patent US20090053245A1, “Pharmacokinetics and Efficacy of Anti-Angiogenic Drugs and Drugs Treating Diseases of the Blood” (priority 2007, published 2009).

For data set [1] the following is noted: non-transplant patients; cited from earlier work.
For data set [2] the following is noted: in vivo; cited from earlier work.
The target in a further data set is T1, CYP3a4 (Homo sapiens, UniProt P08684).
T1 construct: purchased Invitrogen (Carlsbad, Calif.) P2856
Nature of the data set: Fluorescence-based CYP3a4 assay (Invitrogen VIVID) with or without FKBP. The format is in vitro ADME.

The target of data set [3] is T2, vitamin K epoxide reductase (Mus musculus, UniProt Q9CRC0).
T2 construct: clotting time doubles after only about 8 hours for warfarin-SLF dosed mice; from tissue; host or cells: live mice dosed by gavage; clotting time measured on their blood
T2 sequence (Q9CRC0 1-161): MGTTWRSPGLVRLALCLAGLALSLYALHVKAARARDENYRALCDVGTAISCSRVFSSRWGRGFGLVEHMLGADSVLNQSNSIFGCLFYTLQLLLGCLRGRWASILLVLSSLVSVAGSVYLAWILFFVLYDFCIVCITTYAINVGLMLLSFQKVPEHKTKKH
Kind of data set: Time course of anticoagulant effect (Helena Thromboplastic Reagent MI clotting test). Format: in vivo. Particulars: mice, 1.5 mg/kg by gavage in 0.5% methylcellulose. As for the experimental part: Five mice per arm (fifteen animals total) were used for the test. […] The dose was 1.5 mg/kg, administered in 0.5% methylcellulose by gavage. The Helena Thromboplastic Reagent MI test (Helena Laboratories, Beaumont, Tex.) was employed to determine the duration of clotting.

T1 sequence (P08684 2-503 limits assumed): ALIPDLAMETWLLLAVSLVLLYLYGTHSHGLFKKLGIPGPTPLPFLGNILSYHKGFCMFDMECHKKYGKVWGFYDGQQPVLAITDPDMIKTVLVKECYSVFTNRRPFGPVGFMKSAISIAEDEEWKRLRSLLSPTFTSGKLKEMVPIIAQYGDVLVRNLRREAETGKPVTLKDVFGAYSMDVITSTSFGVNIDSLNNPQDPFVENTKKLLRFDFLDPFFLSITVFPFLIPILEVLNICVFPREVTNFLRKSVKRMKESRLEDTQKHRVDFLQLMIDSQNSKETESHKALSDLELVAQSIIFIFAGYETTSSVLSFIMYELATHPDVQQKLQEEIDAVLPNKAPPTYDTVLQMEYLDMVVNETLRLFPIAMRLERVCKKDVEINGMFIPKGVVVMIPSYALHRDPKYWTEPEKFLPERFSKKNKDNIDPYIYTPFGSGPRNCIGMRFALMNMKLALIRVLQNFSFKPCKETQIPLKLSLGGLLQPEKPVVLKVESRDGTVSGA

In the case of `C=CC[C@@H]1/C=C(\C)C[C@H](C)C[C@H](OC)[C@H]2O[C@@](O)(C(=O)C(=O)N3CCCC[C@H]3C(=O)O[C@H](/C(C)=C/[C@@H]3CC[C@@H](O)[C@H](OC)C3)[C@H](C)[C@@H](O)CC1=O)[C@H](C)C[C@@H]2OC` [FK506], the half-life in data set [1] was 21 h. Besides, in data set [2], the “distribution in the blood” value was 72-98%.
As for `COc1cc(/C=C/C(=O)CC(=O)/C=C/c2ccc(O)c(OC)c2)ccc1O` [curcumin], the “protection from degradation by CYP3a4” value at CYP3a4 (in the presence of human FKBP (recombinant bacterially-expressed protein)) is given as “unable to protect”. Moreover, the “substrate for the enzyme CYP3a4” value on CYP3a4 (no FKBP added) was “good substrates”.
Turning to `CC(=O)CC(c1ccccc1)c1c(O)c2ccccc2oc1=O` (centres unmarked) [warfarin], the “time after which clotting time doubles” value in data set [3] was 18 h.
